Like-named read-outs stand apart in the source and are kept apart here.

In one series the test system is trypsin. The following applies: read-out: IC50 trypsin inhibition; cited from earlier work.
The next series has as its system plasmin. The arrangement: method as in PMID 20405925. The following applies: read-out: IC50 plasmin inhibition; cited from earlier work.
The subject of series [1] is CDCP1 cleavage in MDA-MB-231 cells. On the set-up: method as in PMID 22543582. The following applies: positive control, through upregulation of PAI-1; cited from earlier work.
Series [2] shares this test system. In words: Cleavage of CDCP1 in MDA-MB-231 cells (Western blot). It is filed as cell-based. The following applies: 72 h, different concentrations. The protocol:
The experiment was performed by treating MDA-MB-231 cells with different concentrations of either kempopeptin B (2) or C (3) for 72 h (Figure 6A). Dexamethasone (Dex) 100 nM was used as a positive control.
Figure 6 The effect of kempopeptins B and C (2 and 3) on CDCP1 cleavage in MDA-MB-231. (A) MDA-MB-231 cells were treated for 72 h with different concentrations of the test compounds. Following 72 h, the lysates were collected and analyzed by Western blot. (B) MDA-MB-231 cells were treated at different time points with 100 µM of kempopeptin C (3). Following 6 h, 12 h and 24 h, the lysates were collected and analyzed by Western blot. Dexamethasone (Dex) was used as a positive control. (C) MDA-MB-231 cells treated for 24 h with different concentrations of 3 in the presence of 10 nM recombinant human matriptase. Cell lysates were harvested and analyzed by Western blot. (D) Densitometric analysis of the full-length, LMW of CDCP1 and actin bands in (C).
MDA-MB-231 cells (150,000 cells/well) were seeded in 12-well plates. After 24 h, the media were replaced, and cells were treated with different concentrations of inhibitors (2 or 3; prepared in DMSO), the solvent control or the positive control dexamethasone. Whole-cell protein lysates were collected after 6, 12, 24 and 72 h using PhosphoSafe lysis buffer (Novagen, Madison, USA) and the protein concentration measured using the BCA Protein Assay kit (Pierce; 23227; Thermofisher Scientific; Waltham, MA, USA). Twenty micrograms of protein were separated by SDS-PAGE, transferred to polyvinylidene difluoride (PVDF) membranes, probed with CDCP1 antibody (Cell Signaling; 4115S) and detected with SuperSignal West Femto Maximum Sensitivity Substrate (Pierce).
A general note: A western blot detects proteins with antibodies after separation by electrophoresis.

Series [3] can be described thus: Cell viability assay (MTT). It is filed as cell-based. The settings on record: human, MDA-MB-231 breast cancer cells; MDA-MB-231, 48 h, all concentrations tested (32 µM to 320 pM). The protocol: MDA-MB-231 cells were seeded in 96-well plates (10,000 cells/well). After 24 h of incubation, the cells were treated with different concentrations of kempopeptins B or C (2 or 3) or the solvent control (DMSO). Following 48 h of incubation, cell viability was measured using 3-(4,5-dimethylthiazol-2-yl)-2,5-diphenyltetrazolium bromide according to the manufacturer's instructions (Promega, Madison, WI, USA).
Effect of kempopeptins on the viability of MDA-MB-231 cells
Kempopeptin C Kempopeptin B
Figure S1. Effect of kempopeptins B and C (2) and (3) on the viability of MDA -MB-231 breast cancer cells.

For series [4], the target named is T1, trypsin from porcine pancreas (Sus scrofa, UniProt P00761).
T1 construct: purchased Sigma T0303; host or cells: porcine pancreas
T1 sequence (P00761 9-231): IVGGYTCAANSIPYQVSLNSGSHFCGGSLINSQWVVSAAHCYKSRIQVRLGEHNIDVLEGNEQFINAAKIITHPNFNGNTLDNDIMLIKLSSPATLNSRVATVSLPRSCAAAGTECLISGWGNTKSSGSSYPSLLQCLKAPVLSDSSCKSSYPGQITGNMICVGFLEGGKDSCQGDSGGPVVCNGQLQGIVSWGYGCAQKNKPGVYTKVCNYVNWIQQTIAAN
The experiment in a line: Trypsin inhibition assay. It is filed as biochemical. The following applies: mean ± SD, n = 3; 30-min preincubation; read-out: IC50 against trypsin. The protocol:
The trypsin inhibition assay was carried out at room temperature by incubating 10 µL of trypsin from porcine pancreas (T0303, Sigma, St. Louis, MO, USA) (100 µM prepared in assay buffer) with 39 µL of assay buffer (50 mM Tris-HCl, 100 mM NaCl, 1 mM CaCl2; pH 7.8) in the presence of 1 µL of different concentrations of inhibitors (2 and 3; half log dilutions prepared in DMSO) or the solvent control. After a 30-min incubation time, 50 µL of the 1.5 mM substrate: Nα-benzoyl-DL-arginine-4-nitroanilide (prepared as 2 mM stock solution in DMF and further diluted to 1.5 mM in assay buffer) were added to each well. The reaction was monitored by measuring the absorbance at 405 nm every 30 s for 30 min using SpectraMax M5 plate reader (Molecular Devices, Sunnyvale, CA, USA).

The target of a further series is elastase. On the set-up: method as in PMID 18693761. The following applies: cited from earlier work.
Series [5] addresses T2, plasmin from human plasma (Homo sapiens, UniProt P00747).
T2 construct: purchased Sigma P1867; host or cells: human plasma
In words: Plasmin inhibition assay. It counts as biochemical. The settings on record: mean ± SD, n = 3; 30-min preincubation; read-out: IC50 against plasmin. The protocol: The plasmin inhibition assay was carried out by incubating 5 µL of […] plasmin from human plasma (P1867, Sigma, St. Louis, MO, USA) with 1 µL of different concentrations of inhibitors (2 and 3; half log dilutions prepared in DMSO) or the solvent control in the presence of 89 µL assay buffer (0.05 M Tris-HCl, pH 8.9). After a 30-min incubation time, 5 µL of 1.7 mM substrate solution (N-p-Tosyl-D-Gly-Pro-Lys-4-nitroanilide acetate salt; prepared in assay buffer) were added to each well. The reaction was monitored by measuring the absorbance at 405 nm every 30 s for 30 min using the SpectraMax M5 plate reader (Molecular Devices).

In a further series the test system is chymotrypsin. On the set-up: method as in PMID 18693761. The following applies: cited from earlier work.
The target in series [6] is T3, recombinant human matriptase (Homo sapiens, UniProt Q9Y5Y6).
T3 construct: purchased R&D Systems 3946-SE-010
T3 sequence (Q9Y5Y6 615-855 limits assumed): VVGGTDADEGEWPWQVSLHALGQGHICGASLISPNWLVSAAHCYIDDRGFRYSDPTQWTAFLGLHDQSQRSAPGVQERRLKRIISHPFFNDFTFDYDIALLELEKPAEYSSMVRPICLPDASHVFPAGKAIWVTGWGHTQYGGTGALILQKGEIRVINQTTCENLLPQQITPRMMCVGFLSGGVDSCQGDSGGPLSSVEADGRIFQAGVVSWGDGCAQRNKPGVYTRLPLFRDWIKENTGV
The experiment in a line: Matriptase inhibition assay. It counts as biochemical. The following applies: mean ± SD, n = 3; 15-min preincubation; read-out: IC50 against matriptase. The protocol: In matriptase inhibition assay, 50 µL of recombinant human matriptase (R&D Systems, Minneapolis, MN, USA; 3946-SE-010) ([…] prepared in assay buffer: 50 mM Tris, 50 mM NaCl, 0.01% Tween 20; pH 9.0) and 1 µL of different concentrations of inhibitors (2 and 3; half log dilutions prepared in DMSO) or the solvent control were pre-incubated at room temperature for 15 min. Following the incubation period, 50 µL of the 50 µM substrate solution (Boc-Gln-Ala-Arg-AMC) (R&D Systems, Minneapolis, MN, USA; ES014) were added to each well, and the enzyme activity was monitored by measuring the increase in fluorescence signal from the fluorescently-labeled substrate every 30 s for 30 min (Ex 380 nm, Em 460 nm) using the SpectraMax M5 plate reader (Molecular Devices).

T2 sequence (P00747 581-810 limits assumed): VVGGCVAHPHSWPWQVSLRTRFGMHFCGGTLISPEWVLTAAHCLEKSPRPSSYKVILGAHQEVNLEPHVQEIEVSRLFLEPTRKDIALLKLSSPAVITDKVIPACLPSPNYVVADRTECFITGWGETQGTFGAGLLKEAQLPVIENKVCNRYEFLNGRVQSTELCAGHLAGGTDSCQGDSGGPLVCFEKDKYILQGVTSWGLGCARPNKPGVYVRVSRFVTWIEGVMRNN
T2 sequence (P00747 98-580 partner limits assumed): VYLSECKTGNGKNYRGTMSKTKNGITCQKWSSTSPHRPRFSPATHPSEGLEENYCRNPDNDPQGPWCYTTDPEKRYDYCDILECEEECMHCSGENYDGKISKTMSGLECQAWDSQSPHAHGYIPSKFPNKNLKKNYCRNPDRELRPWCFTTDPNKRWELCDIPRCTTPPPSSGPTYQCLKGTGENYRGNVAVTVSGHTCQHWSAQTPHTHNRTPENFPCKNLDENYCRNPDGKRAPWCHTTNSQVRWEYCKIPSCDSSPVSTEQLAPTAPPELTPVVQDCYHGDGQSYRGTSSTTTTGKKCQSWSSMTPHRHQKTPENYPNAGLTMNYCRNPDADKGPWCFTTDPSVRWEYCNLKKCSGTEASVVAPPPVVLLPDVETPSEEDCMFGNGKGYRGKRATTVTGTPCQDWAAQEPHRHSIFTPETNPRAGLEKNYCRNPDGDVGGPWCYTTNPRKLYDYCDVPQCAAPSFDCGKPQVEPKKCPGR

The term IC50 denotes the concentration needed to halve the response being measured. `CC(C)C[C@@H](NC(=O)[C@H](O)COS(=O)(=O)O)C(=O)N[C@@H]1C(=O)N[C@@H](CCCNC(=N)N)C(=O)N[C@H]2CC[C@@H](O)N(C2=O)[C@@H](CC(C)C)C(=O)N(C)[C@@H](Cc2ccc(O)cc2)C(=O)N[C@@H](C(C)C)C(=O)O[C@@H]1C` [Compound A90720A, A90720A]: the 50% inhibitory concentration (IC50) in the series on trypsin is roughly 10 nM.
On to `CCCCCC(=O)N[C@@H](CCC(=O)O)C(=O)N[C@@H]1C(=O)N[C@@H](CCCNC(=N)N)C(=O)N[C@H]2CC[C@@H](O)N(C2=O)[C@@H](Cc2ccccc2)C(=O)N(C)[C@@H](Cc2ccc(O)cc2)C(=O)N[C@@H](C(C)C)C(=O)O[C@@H]1C` [Cyanopeptolin 1020, cyanopeptolin 1020], for which the IC50 in the series on trypsin was 0.67 nM; with plasmin, roughly 490 nM.
As for `C[C@@H]1C[C@H]2[C@@H]3CCC4=CC(=O)C=C[C@]4(C)[C@@]3(F)[C@@H](O)C[C@]2(C)[C@@]1(O)C(=O)CO` [Dexamethasone], the “Effect on cleavage of full-length CDCP1” value in series [1] is “blocks the cleavage of the full-length CDCP1”.
Usually viability stands for the share of living cells, or the viability signal relative to a control. A low value points to more harm to the cells. Consider `CCCC(=O)N[C@H](C(=O)N[C@@H]1C(=O)N[C@@H](CCCCN)C(=O)N[C@H]2CC[C@@H](O)N(C2=O)[C@@H]([C@@H](C)CC)C(=O)N(C)[C@@H](Cc2ccc(OC)c(Br)c2)C(=O)N[C@@H](C(C)C)C(=O)O[C@@H]1C)C(C)C` [Kempopeptin B, kempopeptin B], for which, in [2], the “Inhibition of CDCP1 cleavage in MDA-MB-231” value is “No inhibition of CDCP1 cleavage was observed”. This compound also showed a viability at 48 h in series [3] greater than 90%. Also, the IC50 was 1490 ± 180 nM in [4]; greater than 67000 nM on elastase (read-out: IC50 against elastase); 1050 ± 190 nM in [5]; greater than 67000 nM in the series on chymotrypsin (read-out: IC50 against chymotrypsin); 1830 ± 190 nM in [6].
As for `CC(=O)N1CCC[C@H]1C(=O)N[C@H](C(=O)N[C@@H]1C(=O)N[C@@H](CC(C)C)C(=O)N[C@H]2CC[C@@H](O)N(C2=O)[C@@H](Cc2ccccc2)C(=O)N(C)[C@@H](Cc2ccc(O)cc2)C(=O)N[C@@H](C(C)C)C(=O)O[C@@H]1C)[C@@H](C)O` [Kempopeptin A, kempopeptin A], the results for the IC50 at elastase (read-out: IC50 elastase inhibition) and in the series with chymotrypsin (read-out: IC50 chymotrypsin inhibition) were 320 nM and 2600 nM, respectively.
Regarding `CCCC(=O)N[C@@H](CCC(N)=O)C(=O)N[C@@H]1C(=O)N[C@@H](CCCNC(N)=O)C(=O)N[C@H]2CC[C@@H](O)N(C2=O)[C@@H]([C@@H](C)CC)C(=O)N(C)[C@@H](Cc2ccc(OC)c(Br)c2)C(=O)N[C@@H](C(C)C)C(=O)O[C@@H]1C` [Symplocamide A, symplocamide A], the IC50 in the series on trypsin was roughly 80000 nM.
